{"source": "paper PMC11239673", "about": "“Structural basis for the bi-specificity of USP25 and USP28 inhibitors” (EMBO Reports, 2024)", "type_in_all_cases": "biochemical", "key": {"[1]": {"biological_target": "T1, USP28Δtip H261A (Homo sapiens, UniProt Q96RU2, H261A/INS458SGSG)", "T1 sequence (Q96RU2 with tags, fused parts or gaps H261A/INS458SGSG)": "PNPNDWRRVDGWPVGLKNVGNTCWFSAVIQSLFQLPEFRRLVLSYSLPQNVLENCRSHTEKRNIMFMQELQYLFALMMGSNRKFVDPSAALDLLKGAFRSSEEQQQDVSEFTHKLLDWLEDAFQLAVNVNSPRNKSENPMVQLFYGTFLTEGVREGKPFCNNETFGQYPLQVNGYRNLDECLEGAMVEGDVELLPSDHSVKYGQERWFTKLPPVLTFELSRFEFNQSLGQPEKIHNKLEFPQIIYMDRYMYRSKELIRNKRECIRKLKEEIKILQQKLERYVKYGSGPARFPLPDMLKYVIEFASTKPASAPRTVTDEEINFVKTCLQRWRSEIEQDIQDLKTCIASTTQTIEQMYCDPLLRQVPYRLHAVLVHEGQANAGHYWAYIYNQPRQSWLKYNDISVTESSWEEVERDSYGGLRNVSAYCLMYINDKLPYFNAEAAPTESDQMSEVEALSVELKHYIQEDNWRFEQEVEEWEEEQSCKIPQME", "assay": "Ub-Rho110 dose–response assay, USP28Δtip H261A", "settings": "for IC50: USP28 - H261A"}, "[2]": {"biological_target": "T2, USP28Δtip D265S (Homo sapiens, UniProt Q96RU2, D265S/INS458SGSG)", "T2 sequence (Q96RU2 with tags, fused parts or gaps D265S/INS458SGSG)": "T1 sequence (Q96RU2 with tags, fused parts or gaps H261A/INS458SGSG)", "assay": "Ub-Rho110 dose–response assay, USP28Δtip D265S", "settings": "for IC50: USP28 - D265S"}, "[3]": {"biological_target": "T3, USP28Δtip Q315A (Homo sapiens, UniProt Q96RU2, INS458SGSG/Q315A)", "T3 sequence (Q96RU2 with tags, fused parts or gaps Q315A/INS458SGSG)": "T1 sequence (Q96RU2 with tags, fused parts or gaps H261A/INS458SGSG)", "assay": "Ub-Rho110 dose–response assay, USP28Δtip Q315A", "settings": "for IC50: USP28 - Q315A"}, "[4]": {"biological_target": "T4, USP28Δtip E366A (Homo sapiens, UniProt Q96RU2, E366A/INS458SGSG)", "T4 sequence (Q96RU2 with tags, fused parts or gaps E366A/INS458SGSG)": "T1 sequence (Q96RU2 with tags, fused parts or gaps H261A/INS458SGSG)", "assay": "Ub-Rho110 dose–response assay, USP28Δtip E366A", "settings": "for IC50: USP28 - E366A"}, "[5]": {"biological_target": "T5, USP25Δtip D272S (Homo sapiens, UniProt Q9UHP3, D272S/DEL465-537/INS464GSGSGS)", "T5 construct": "6xHis or thioredoxin-6xHis (N, cleaved yes); made in house; host or cells: E. coli BL21star (DE3)", "T5 sequence (Q9UHP3 with tags, fused parts or gaps D272S/DEL465-477/P478G/DEL482-535/A536G/P537S limits assumed)": "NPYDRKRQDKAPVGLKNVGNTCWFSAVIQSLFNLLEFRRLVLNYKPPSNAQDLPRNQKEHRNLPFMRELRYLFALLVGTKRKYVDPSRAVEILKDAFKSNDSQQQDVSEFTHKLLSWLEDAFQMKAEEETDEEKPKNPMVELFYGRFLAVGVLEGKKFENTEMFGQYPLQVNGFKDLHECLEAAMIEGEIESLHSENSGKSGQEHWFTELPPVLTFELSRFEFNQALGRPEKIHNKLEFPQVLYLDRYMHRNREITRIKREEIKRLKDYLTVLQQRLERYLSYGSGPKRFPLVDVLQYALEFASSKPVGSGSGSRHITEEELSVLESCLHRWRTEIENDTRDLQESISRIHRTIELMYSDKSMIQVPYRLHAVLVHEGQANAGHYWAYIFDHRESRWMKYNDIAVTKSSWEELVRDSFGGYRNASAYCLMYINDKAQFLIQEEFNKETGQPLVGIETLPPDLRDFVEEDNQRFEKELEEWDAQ", "assay": "Ub-Rho110 dose–response assay, USP25Δtip D272S"}, "[6]": {"biological_target": "T6, USP25Δtip E373A (Homo sapiens, UniProt Q9UHP3, DEL465-537/E373A/INS464GSGSGS)", "T6 construct": "6xHis or thioredoxin-6xHis (N, cleaved yes); made in house; host or cells: E. coli BL21star (DE3)", "T6 sequence (Q9UHP3 with tags, fused parts or gaps E373A/DEL465-477/P478G/DEL482-535/A536G/P537S limits assumed)": "T5 sequence (Q9UHP3 with tags, fused parts or gaps D272S/DEL465-477/P478G/DEL482-535/A536G/P537S limits assumed) with S116D, E217A", "assay": "Ub-Rho110 dose–response assay, USP25Δtip E373A"}, "[7]": {"settings": "mean of replicates, read-out: IC50, mean and SD"}, "[8]": {"settings": "single replicates, read-out: IC50 of each replicate curve (unlabelled line above mean and SD)"}, "[9]": {"settings": "read-out: relative inhibition [%] - USP28 - H261A"}, "[10]": {"settings": "read-out: relative inhibition [%] - USP28 - D265S"}, "[11]": {"settings": "read-out: relative inhibition [%] - USP28 - Q315A"}}, "note": "Changes are numbered by the printed parent chain. Where “and” joins values, the source holds several entries; their conditions need not be identical. Equal entries are not always repeated. Where two headings read alike, the source gives them in different places.", "data": [{"smiles": "Cc1ccc2c(N)c(C(=O)NC3CCc4cc(N5CC6CCC(C5)N6)ccc4C3)sc2n1", "note": "(centres unmarked) [FT206]", "values": [{"measurement": "t-test vs. USP28 WT control - H261A", "setting": "[1]", "value": "1.437E-02"}, {"measurement": "IC50", "setting": "[1]; [7]", "value": 1370, "unit": "nM"}, {"measurement": "IC50", "setting": "[1]; [8]", "value": "2480 nM and 1420 nM and 1160 nM and 1020 nM and 771 nM"}, {"measurement": "inhibition at 11.11 µM", "setting": "[1]; [9]", "value": 80.8, "unit": "%"}, {"measurement": "inhibition at 33.33 µM", "setting": "[1]; [9]", "value": 98.5, "unit": "%"}, {"measurement": "inhibition at 100 µM", "setting": "[1]; [9]", "value": 107, "unit": "%"}, {"measurement": "inhibition at […]", "setting": "[1]; [9]", "value": 74.8, "unit": "%"}, {"measurement": "t-test vs. USP28 WT control - D265S", "setting": "[2]", "value": "4.502E-03"}, {"measurement": "IC50", "setting": "[2]; [7]", "value": 310, "unit": "nM"}, {"measurement": "IC50", "setting": "[2]; [8]", "value": "288 nM and 267 nM and 284 nM and 266 nM and 437 nM"}, {"measurement": "inhibition at 11.11 µM", "setting": "[2]; [10]", "value": 99.7, "unit": "%"}, {"measurement": "inhibition at 33.33 µM", "setting": "[2]; [10]", "value": 100, "unit": "%"}, {"measurement": "inhibition at 100 µM", "setting": "[2]; [10]", "value": 101, "unit": "%"}, {"measurement": "inhibition at […]", "setting": "[2]; [10]", "value": "97.8% and 94.4% and 33.5% and 30.9%"}, {"measurement": "t-test vs. USP28 WT control - Q315A", "setting": "[3]", "value": "6.868E-03"}, {"measurement": "IC50", "setting": "[3]; [7]", "value": 360, "unit": "nM"}, {"measurement": "IC50", "setting": "[3]; [8]", "value": "492 nM and 375 nM and 444 nM and 267 nM and 246 nM"}, {"measurement": "inhibition at 11.11 µM", "setting": "[3]; [11]", "value": 96.4, "unit": "%"}, {"measurement": "inhibition at 33.33 µM", "setting": "[3]; [11]", "value": 97.8, "unit": "%"}, {"measurement": "inhibition at 100 µM", "setting": "[3]; [11]", "value": 98.7, "unit": "%"}, {"measurement": "inhibition at […]", "setting": "[3]; [11]", "value": "92.1% and 78.6% and 44.2%"}, {"measurement": "t-test vs. USP28 WT control - E366A", "setting": "[4]", "value": "4.894E-04"}, {"measurement": "IC50", "setting": "[4]; [7]", "value": 17300, "unit": "nM"}, {"measurement": "IC50", "setting": "[4]; [8]", "value": "14500 nM and 15500 nM and 12100 nM and 14200 nM and 25700 nM and 21800 nM"}, {"measurement": "inhibition at 100 µM", "setting": "[4]; read-out: relative inhibition [%] - USP28 - E366A", "value": 64.6, "unit": "%"}, {"measurement": "t-test vs. USP25 WT control - D272S", "setting": "[5]; p value, inhibitor IC50 on USP25 D272S compared with USP25 WT", "value": "3.650E-02"}, {"measurement": "inhibition at 33.33 µM", "setting": "[5]; read-out: relative inhibition [%] - USP25 - D272S, inhibitor 33.33 µM, single replicates", "value": 87.3, "unit": "%"}, {"measurement": "inhibition at 100 µM", "setting": "[5]; read-out: relative inhibition [%] - USP25 - D272S, inhibitor 100.00 µM, single replicates", "value": 95.2, "unit": "%"}, {"measurement": "t-test vs. USP25 WT control - E373A", "setting": "[6]; p value, inhibitor IC50 on USP25 E373A compared with USP25 WT", "value": "3.888E-04"}, {"measurement": "inhibition at 11.11 µM", "setting": "[6]; read-out: relative inhibition [%] - USP25 - E373A, inhibitor 11.11 µM, single replicates", "value": 13.3, "unit": "%"}, {"measurement": "inhibition at 33.33 µM", "setting": "[6]; read-out: relative inhibition [%] - USP25 - E373A, inhibitor 33.33 µM, single replicates", "value": 33.6, "unit": "%"}, {"measurement": "inhibition at 100 µM", "setting": "[6]; read-out: relative inhibition [%] - USP25 - E373A, inhibitor 100.00 µM, single replicates", "value": 59.9, "unit": "%"}]}]}
